Experimental findings from patent US12233161B1, “Lipids and lipid nanoparticle formulations” (LONGUIDE BIOPHARMA CORPORATION, priority 2024, dated 2025) are described below.

The subject of this assay is mice. Description: In vivo delivery of FLuc-mRNA lipid nanoparticles in mice, in vivo imaging (IVIS). The following applies: for % of organ targeting / IVIS: Fluc-mRNA LNP; for organ targeting specificity (spleen or lung), in words: Table 3, Fluc-mRNA, various formulations. The method, then: After the preparation was completed, the preparation was injected intramuscularly (mice rectus femoris muscle of the thigh), intravenously (mice tail vein), or intraperitoneal injection or subcutaneous injection (subcutaneous on the back), with approximately 75 μL per mouse, for a total of 3 mice. After a certain time of injection, in vivo imaging (PerkinElmer, IVIS Lumina III) was performed. 10-15 minutes before imaging, 200 μL of 15 mg/mL D-Luciferin working solution was injected intraperitoneally, and the imaging analysis was performed using an in vivo imager.

Setting [1] is: route IM, organ: liver, formulation, molar ratio and N/P as in the table.
The mark [2] stands for this setting: route IM, organ: lung, formulation, molar ratio and N/P as in the table.
The mark [3] stands for this setting: route IM, organ: muscle, formulation, molar ratio and N/P as in the table.
Setting [4] is: route IM, organ: spleen, formulation, molar ratio and N/P as in the table.
Where [5] appears, read: route IV, organ: body, formulation, molar ratio and N/P as in the table.
Where [6] appears, read: route IV, organ: liver, formulation, molar ratio and N/P as in the table.
[7] abbreviates: route IV, organ: lung, formulation, molar ratio and N/P as in the table.
Where [8] appears, read: route IV, organ: spleen, formulation, molar ratio and N/P as in the table.
Where [9] appears, read: route IM, organ not given, formulation, molar ratio and N/P as in the table.
Where [10] appears, read: route IV, organ not given, formulation, molar ratio and N/P as in the table.
Setting [11] is: route IH, organ: liver, DSPE-PEG5000:DSPC:Chol:compound 1.40:11.15:38.95:48.50, N/P 30.
Setting [12] is: route IH, organ: lung, DSPE-PEG5000:DSPC:Chol:compound 1.40:11.15:38.95:48.50, N/P 30.
[13] abbreviates: route IH, organ: spleen, DSPE-PEG5000:DSPC:Chol:compound 1.40:11.15:38.95:48.50, N/P 30.

`CCCCCCCCC(CCCCCC)C(=O)OCCCCNC(=O)C(O)CCN(CCCN(C)CCN(CC(O)C(=O)NCCCCOC(=O)C(CCCCCC)CCCCCCCC)CC(O)C(=O)NCCCCOC(=O)C(CCCCCC)CCCCCCCC)C(O)C(=O)NCCCCOC(=O)C(CCCCCC)CCCCCCCC` (centres unmarked) [Compound L0377]: the “organ targeting specificity (spleen or lung), in words” value (from here on “organ targeting specificity”) was “strong targeting specificity to deliver to spleen”. Further, under setting [1], the “% of organ targeting” value is reported as 35.08% and the IVIS amounted to 1.59E+05. In addition, under setting [2], the “% of organ targeting” value turned out to be 6.58% and the IVIS came out at 2.98E+04. Also, the IVIS under setting [3] is on record as 3.71E+07. Also, under setting [4], the “% of organ targeting” value was 58.34% and the IVIS was 2.64E+05. Besides, under setting [5], the IVIS was found to be 1.81E+08. Besides, under setting [6], the “% of organ targeting” value came out at 38.23% and the IVIS is on record as 6.08E+07. Moreover, under setting [7], the “% of organ targeting” value came out at 4.20% and the IVIS is 6.67E+06. Also, under setting [8], the “% of organ targeting” value stood at 57.57% and the IVIS was found to be 9.15E+07.

In the case of `CCCCCCC(CCCCCC)C(=O)OCCCCNC(=O)C(O)CN(CCCN(CC(O)C(=O)NCCCCOC(=O)C(CCCCCC)CCCCCC)CC(O)C(=O)NCCCCOC(=O)C(CCCCCC)CCCCCC)CCCN(CC(O)C(=O)NCCCCOC(=O)C(CCCCCC)CCCCCC)CC(O)C(=O)NCCCCOC(=O)C(CCCCCC)CCCCCC` (centres unmarked) [Compound L0369], the IVIS came out at 6.07E+07 under setting [9]; 1.22E+10 under setting [5]; 4.47E+09 under setting [6]; 3.40E+07 under setting [7]; 3.07E+07 under setting [8]. The “% of organ targeting” value was 98.57% under setting [6], 0.75% under setting [7] and 0.68% under setting [8].

On to `CCCCCCCCC(CCCCCC)C(=O)OCCCCCCNC(=O)C(O)CN(CCCN(CC(O)C(=O)NCCCCCCOC(=O)C(CCCCCC)CCCCCCCC)CC(O)C(=O)NCCCCCCOC(=O)C(CCCCCC)CCCCCCCC)CCCN(CC(O)C(=O)NCCCCCCOC(=O)C(CCCCCC)CCCCCCCC)CC(O)C(=O)NCCCCCCOC(=O)C(CCCCCC)CCCCCCCC` (centres unmarked) [Compound L0372], for which the IVIS reads like this: under setting [9], 7.60E+06; under setting [10], 4.83E+08.

As for `CCCCCCCCN(C)C(=O)C(O)CN(C)CCN(C)CCN(C)CC(O)C(=O)N(C)CCCCCCCC` (centres unmarked) [Compound L0351], the IVIS runs as follows: under setting [9], 1.19E+06; under setting [10], 1.55E+06.

Turning to `CCCCCCC(CCCCCC)C(=O)NCCNC(=O)C(O)CN(CCCN(C)CCCN(CC(O)C(=O)NCCNC(=O)C(CCCCCC)CCCCCC)CC(O)C(=O)NCCNC(=O)C(CCCCCC)CCCCCC)CC(O)C(=O)NCCNC(=O)C(CCCCCC)CCCCCC` (centres unmarked) [Compound L0379], the “organ targeting specificity” value is reported as “strong targeting specificity to deliver to spleen”. Moreover, under setting [1], the “% of organ targeting” value is given as 35.55% and the IVIS is reported as 1.37E+06. In addition, under setting [2], the “% of organ targeting” value worked out at 3.16% and the IVIS turned out to be 1.22E+05. For the same molecule, the IVIS under setting [3] is 2.68E+08. Under setting [4], the “% of organ targeting” value is 61.28% and the IVIS amounted to 2.37E+06. Also, under setting [10], the IVIS is given as 1.63E+09.

For `CCCCCCCC(CCCCCCC)OC(=O)CCCNC(=O)C(O)CN(CCCN(CC(O)C(=O)NCCCC(=O)OC(CCCCCCC)CCCCCCC)CC(O)C(=O)NCCCC(=O)OC(CCCCCCC)CCCCCCC)CCCN(CC(O)C(=O)NCCCC(=O)OC(CCCCCCC)CCCCCCC)CC(O)C(=O)NCCCC(=O)OC(CCCCCCC)CCCCCCC` (centres unmarked) [Compound L0384], the “organ targeting specificity” value is given as “strong targeting specificity to deliver to spleen”. Moreover, under setting [1], the “% of organ targeting” value worked out at 29.97% and the IVIS is 2.35E+05. Moreover, under setting [2], the “% of organ targeting” value is 13.02% and the IVIS was determined as 1.02E+05. In addition, the IVIS under setting [3] is 2.75E+07. For the same molecule, under setting [4], the “% of organ targeting” value came to 57.01% and the IVIS is reported as 4.47E+05. Under setting [5], the IVIS was 4.54E+08. Also, under setting [6], the “% of organ targeting” value amounted to 54.57% and the IVIS is recorded as 1.50E+08. Besides, under setting [7], the “% of organ targeting” value amounted to 0.39% and the IVIS is 1.09E+06. Further, under setting [8], the “% of organ targeting” value came out at 45.03% and the IVIS is recorded as 1.24E+08.

In the case of `CCCCCCCCC(CCCCCC)C(=O)OCCCCCCNC(=O)C(O)CN(CCCN(C)CCCN(CC(O)C(=O)NCCCCCCOC(=O)C(CCCCCC)CCCCCCCC)CC(O)C(=O)NCCCCCCOC(=O)C(CCCCCC)CCCCCCCC)CC(O)C(=O)NCCCCCCOC(=O)C(CCCCCC)CCCCCCCC` (centres unmarked) [Compound L0370], the IVIS runs as follows: under setting [9], 1.68E+07; under setting [5], 1.43E+07; under setting [6], 8.65E+05; under setting [7], 3.34E+06; under setting [8], 1.44E+07. Besides, the “% of organ targeting” value is 4.65% under setting [6], 17.97% under setting [7] and 77.39% under setting [8].

On to `CCCCCCC(CCCCCC)C(=O)NCCOC(=O)C(O)CN(CCN(C)CCN(CC(O)C(=O)OCCNC(=O)C(CCCCCC)CCCCCC)CC(O)C(=O)OCCNC(=O)C(CCCCCC)CCCCCC)CC(O)C(=O)OCCNC(=O)C(CCCCCC)CCCCCC` (centres unmarked) [Compound L0362], for which the IVIS by setting is: (route IH, organ: body, DSPE-PEG5000:DSPC:Chol:compound 1.40:11.15:38.95:48.50, N/P 30) 1.38E+08; under setting [11], 1.80E+07; under setting [12], 3.28E+05; under setting [13], 9.50E+06; under setting [1], 2.62E+07; under setting [2], 4.55E+05. The IVIS under setting [3] is listed as 3.43E+08 and the IVIS under setting [4] came out at 2.09E+07. Further, the “% of organ targeting” value amounted to 62.89% under setting [11]; 1.15% under setting [12]; 33.19% under setting [13]; 44.30% under setting [1]; 0.77% under setting [2]; 35.43% under setting [4].

For `CCCCCCCCN(C)C(=O)C(O)CN(CCCN(C)CCCN(CC(O)C(=O)N(C)CCCCCCCC)CC(O)C(=O)N(C)CCCCCCCC)CC(O)C(=O)N(C)CCCCCCCC` (centres unmarked) [Compound L0350], the IVIS by setting is: under setting [9], 1.75E+05; under setting [5], 8.43E+06; under setting [6], 2.94E+05; under setting [7], 2.99E+07; under setting [8], 8.57E+05. Moreover, the “% of organ targeting” value under setting [6] is reported as 0.95%, the “% of organ targeting” value under setting [7] worked out at 96.29% and the “% of organ targeting” value under setting [8] was found to be 2.76%.

For `CCCCCCCCC(CCCCCC)C(=O)NCCOC(=O)C(O)CN(CCCN(C)CCCN(CC(O)C(=O)OCCNC(=O)C(CCCCCC)CCCCCCCC)CC(O)C(=O)OCCNC(=O)C(CCCCCC)CCCCCCCC)CC(O)C(=O)OCCNC(=O)C(CCCCCC)CCCCCCCC` (centres unmarked) [Compound L0373], the IVIS under setting [9] came out at 8.38E+06; the IVIS under setting [5] is given as 7.79E+07; the IVIS under setting [6] is given as 9.41E+06; the IVIS under setting [7] is recorded as 1.10E+07; the IVIS under setting [8] is reported as 6.08E+07. The “% of organ targeting” value turned out to be 11.58% under setting [6], 13.53% under setting [7] and 74.89% under setting [8].
